Measurements reported in patent publication US20250034197A1, “NUCLEOSIDE-DIPHOSPHATE-HEPTOSE COMPOUNDS FOR TREATING CONDITIONS ASSOCIATED WITH ALPK1 ACTIVITY” (PYROTECH (BEIJING) BIOTECHNOLOGY CO., LTD., priority 2021, published 2025).

molecular target: T1, ALPK1 (Homo sapiens, UniProt Q96QP1); assay: NF-κB luciferase reporter assay in 293T cells (cellular assay); format: cell-based
T1 construct: endogenous in cells; host or cells: 293T cells
Description: The compounds disclosed herein activate NF-κB through ALPK1-TIFA axis as determined by the NF-κB luciferase reporter and TIFA phosphorylation. For NF-κB luciferase assay, the plasmids (pNL2.2-BII-5RE-Luc), and control vector (pRL-TK) were transfected into 293T cells with the Jetprime reagents (Polyplus). NF-κB luciferase activity was determined using the dual luciferase assay kit (Promega) according to the manufacturer's instructions. TIFA phosphorylation upon the treatment with the compounds disclosed herein described in Table 1, were assayed with immunoblotting. Briefly, for the immunoblotting assay, the 293T cells were seeded in 12-well-plates and cultured for 16 h, and treated with indicated compounds for another 2 hours. Subsequently, the cells were collected and sampled as the regular western-blotting method, immunoblotted by the TIFA phosphorylation specific antibody (ab214815, Abcam).
The EC50 of the compounds disclosed herein were determined by the NF-κB luciferase reporter assay using 293T cells described supra. Compounds with indicated concentrations were added to the culture medium of 293T and the NF-κB luciferase activity was determined using the dual luciferase assay kit (Promega) according to the manufacturer's instructions. […] These chemical entities induce strong activation of the immune regulator NF-κB.

T1 sequence (Q96QP1 whole entry): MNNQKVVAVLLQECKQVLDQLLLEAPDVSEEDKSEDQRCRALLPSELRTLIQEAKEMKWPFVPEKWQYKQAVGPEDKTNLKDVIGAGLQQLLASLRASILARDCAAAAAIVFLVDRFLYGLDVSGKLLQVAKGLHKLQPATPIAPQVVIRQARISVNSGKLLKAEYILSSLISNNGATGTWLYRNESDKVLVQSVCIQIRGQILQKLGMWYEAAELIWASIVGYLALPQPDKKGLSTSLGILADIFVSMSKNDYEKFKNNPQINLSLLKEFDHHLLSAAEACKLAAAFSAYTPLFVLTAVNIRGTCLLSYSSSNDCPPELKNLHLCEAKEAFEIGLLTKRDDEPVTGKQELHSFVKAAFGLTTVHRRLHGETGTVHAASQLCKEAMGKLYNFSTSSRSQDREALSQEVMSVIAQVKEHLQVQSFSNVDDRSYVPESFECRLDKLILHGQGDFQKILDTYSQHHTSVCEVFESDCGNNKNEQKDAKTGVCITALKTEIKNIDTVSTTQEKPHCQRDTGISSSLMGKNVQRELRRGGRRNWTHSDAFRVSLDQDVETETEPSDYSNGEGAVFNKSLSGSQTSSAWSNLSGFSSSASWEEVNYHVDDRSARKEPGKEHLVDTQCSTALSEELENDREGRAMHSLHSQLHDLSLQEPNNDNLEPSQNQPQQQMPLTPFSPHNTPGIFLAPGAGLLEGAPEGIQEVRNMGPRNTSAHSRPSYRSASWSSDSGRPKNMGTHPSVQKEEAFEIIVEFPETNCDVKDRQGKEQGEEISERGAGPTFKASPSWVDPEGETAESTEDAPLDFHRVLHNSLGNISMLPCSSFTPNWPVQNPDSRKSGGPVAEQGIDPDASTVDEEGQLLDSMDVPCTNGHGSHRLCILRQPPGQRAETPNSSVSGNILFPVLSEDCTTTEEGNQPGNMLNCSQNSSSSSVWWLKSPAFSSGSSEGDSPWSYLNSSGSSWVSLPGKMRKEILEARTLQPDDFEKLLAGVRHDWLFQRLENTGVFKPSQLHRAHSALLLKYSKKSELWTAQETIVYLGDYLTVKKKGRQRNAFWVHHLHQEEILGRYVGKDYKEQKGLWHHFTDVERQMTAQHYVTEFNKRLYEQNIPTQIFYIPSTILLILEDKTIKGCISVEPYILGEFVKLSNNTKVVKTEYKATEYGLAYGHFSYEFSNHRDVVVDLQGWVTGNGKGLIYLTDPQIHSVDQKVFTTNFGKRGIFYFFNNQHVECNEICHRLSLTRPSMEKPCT

| Compound | EC50 [nM] |
| --- | --- |
| C=C[C@@]1(O)[C@H](O)[C@@H](CO[P@](=O)(S)OP(=O)(O)OC2OC([C@H](COC(C)=O)OC(C)=O)C(OC(C)=O)C(OC(C)=O)C2OC(C)=O)O[C@H]1n1cnc2c(N)ncnc21 (single isomer, unassigned) [Example 31O] | 21 |
| C=C[C@@]1(O)[C@H](O)[C@@H](CO[P@@](=O)(S)OP(=O)(O)OC2OC([C@H](COC(C)=O)OC(C)=O)C(OC(C)=O)C(OC(C)=O)C2OC(C)=O)O[C@H]1n1cnc2c(N)ncnc21 (single isomer, unassigned) [Example 31P] | 7.23 |
| C#C[C@@]1(F)[C@H](O)[C@@H](COP(=O)(S)OP(=O)(O)OC2OC([C@H](COC(C)=O)OC(C)=O)C(OC(C)=O)C(OC(C)=O)C2OC(C)=O)O[C@H]1n1cnc2c(N)ncnc21 (stereo partly drawn) [Example 21C] | 15.2 |
| C#C[C@@]1(F)[C@H](O)[C@@H](COP(=O)(S)OP(=O)(O)OC2OC([C@H](COC(C)=O)OC(C)=O)C(OC(C)=O)C(OC(C)=O)C2OC(C)=O)O[C@H]1n1ccc(=O)[nH]c1=O (stereo partly drawn) [Example 22C] | 49.1 |
| C#C[C@@]1(O)[C@H](O)[C@@H](COP(=O)(S)OP(=O)(O)OC2OC([C@@H](F)COC(C)=O)C(OC(C)=O)C(OC(C)=O)C2OC(C)=O)O[C@H]1n1cnc2c(N)ncnc21 (stereo partly drawn) [Example 25A] | 244 |
| C#C[C@@]1(O)[C@H](O)[C@@H](COP(=O)(S)OP(=O)(O)OC2OC([C@H](COC(C)=O)OC(C)=O)C(OC(C)=O)C(OC(C)=O)C2OC(C)=O)O[C@H]1n1cnc2c(N)ncnc21 (stereo partly drawn) [Example 25C] | 20 |
| C#C[C@@]1(O)[C@H](O)[C@@H](COP(=O)(S)OP(=O)(O)OC2OC([C@H](COC(C)=O)OC(C)=O)C(OC(C)=O)C(OC(C)=O)C2OC(C)=O)O[C@H]1n1ccc(=O)[nH]c1=O (stereo partly drawn) [Example 26C] | 45.5 |
| C#C[C@]1(O)[C@H](O)[C@@H](COP(=O)(S)OP(=O)(O)OC2OC([C@H](COC(C)=O)OC(C)=O)C(OC(C)=O)C(OC(C)=O)C2OC(C)=O)O[C@H]1n1ccc(=O)[nH]c1=O (stereo partly drawn) [Example 26E] | > 3000 |
| C=C[C@@]1(O)[C@H](O)[C@@H](COP(=O)(S)OP(=O)(O)OC2OC([C@H](COC(=O)CC)OC(C)=O)C(OC(C)=O)C(OC(C)=O)C2OC(C)=O)O[C@H]1n1cnc2c(N)ncnc21 (stereo partly drawn) [Example 31H] | 0.15 |
| C=C[C@@]1(O)[C@H](O)[C@@H](COP(=O)(OP(=O)(O)OC2OC([C@H](COC(C)=O)OC(C)=O)C(OC(C)=O)C(OC(C)=O)C2OC(C)=O)SCOC(=O)C(C)C)O[C@H]1n1cnc2c(N)ncnc21 (stereo partly drawn) [Example 31K] | 57.6 |
| C=C[C@@]1(O)[C@H](O)[C@@H](COP(=O)(OP(=O)(O)OC2OC([C@H](COC(C)=O)OC(C)=O)C(OC(C)=O)C(OC(C)=O)C2OC(C)=O)SCOC(=O)OC(C)C)O[C@H]1n1cnc2c(N)ncnc21 (stereo partly drawn) [Example 31L] | 13.8 |
| C=C[C@@]1(O)[C@H](O)[C@@H](COP(=O)(S)OP(=O)(O)OC2OC([C@H](COC(=O)C(C)C)OC(=O)C(C)C)C(OC(C)=O)C(OC(C)=O)C2OC(C)=O)O[C@H]1n1cnc2c(N)ncnc21 (stereo partly drawn) [Example 31M] | 2.99 |
| CC(=O)OC[C@H](OC(C)=O)C1OC(OP(=O)(O)OP(=O)(S)OC[C@H]2O[C@@H](n3cnc4c(N)ncnc43)[C@H](N)[C@@H]2O)C(OC(C)=O)C(OC(C)=O)C1OC(C)=O (stereo partly drawn) [Example 33C] | 40.2 |
| CC(=O)N[C@@H]1[C@H](O)[C@@H](COP(=O)(S)OP(=O)(O)OC2OC([C@H](COC(C)=O)OC(C)=O)C(OC(C)=O)C(OC(C)=O)C2OC(C)=O)O[C@H]1n1cnc2c(N)ncnc21 (stereo partly drawn) [Example 33E] | 434 |
| CN[C@@H]1[C@H](O)[C@@H](COP(=O)(S)OP(=O)(O)OC2OC([C@H](COC(C)=O)OC(C)=O)C(OC(C)=O)C(OC(C)=O)C2OC(C)=O)O[C@H]1n1cnc2c(N)ncnc21 (stereo partly drawn) [Example 34C] | 345 |
| CN[C@@H]1[C@H](O)[C@@H](COP(=O)(S)OP(=O)(O)OC2OC([C@@H](O)CO)C(O)C(O)C2O)O[C@H]1n1cnc2c(N)ncnc21 (stereo partly drawn) [Example 34D] | 167 |

Other lines, results leading:

| EC50 [nM] | Compound |
| --- | --- |
| 16.9 | CC(=O)OC[C@H](OC(C)=O)C1OC(OP(=O)(O)O[P@@](=O)(S)OC[C@H]2O[C@@H](n3cnc4c(N)ncnc43)[C@H](N(C)C)[C@@H]2O)C(OC(C)=O)C(OC(C)=O)C1OC(C)=O (single isomer, unassigned) [Example 35G] |
| 16.7 | CC(=O)OC[C@H](OC(C)=O)C1OC(OP(=O)(O)O[P@](=O)(S)OC[C@H]2O[C@@H](n3cnc4c(N)ncnc43)[C@H](N(C)C)[C@@H]2O)C(OC(C)=O)C(OC(C)=O)C1OC(C)=O (single isomer, unassigned) [Example 35H] |
| 10.9 | CN(C)[C@@H]1[C@H](O)[C@@H](CO[P@](=O)(S)OP(=O)(O)OC2OC([C@@H](O)CO)C(O)C(O)C2O)O[C@H]1n1cnc2c(N)ncnc21 (single isomer, unassigned) [Example 35I] |
| 10.3 | CN(C)[C@@H]1[C@H](O)[C@@H](CO[P@@](=O)(S)OP(=O)(O)OC2OC([C@@H](O)CO)C(O)C(O)C2O)O[C@H]1n1cnc2c(N)ncnc21 (single isomer, unassigned) [Example 35J] |
| > 1000 | C=C=C[C@@]1(O)[C@H](O)[C@@H](COP(=O)(S)OP(=O)(O)OC2OC([C@@H](O)CO)C(O)C(O)C2O)O[C@H]1n1cnc2c(N)ncnc21 (single isomer, unassigned) [Example 97D] |
| 7.77 | C=C[C@@]1(OC)[C@H](O)[C@@H](COP(=O)(S)OP(=O)(O)OC2OC([C@H](COC(C)=O)OC(C)=O)C(OC(C)=O)C(OC(C)=O)C2OC(C)=O)O[C@@H]1n1ccc(=O)[nH]c1=O (stereo in doubt) [Example 45E] |
| 38.7 | CN(C)[C@@H]1[C@H](O)[C@@H](COP(=O)(S)OP(=O)(O)OC2OC([C@@H](O)CO)C(O)C(O)C2O)O[C@H]1n1cnc2c(N)ncnc21 (stereo partly drawn) [Example 35D] |
| 34.2 | CC(=O)OC[C@H](F)C1OC(OP(=O)(O)O[P@@](=O)(S)OC[C@H]2O[C@@H](n3cnc4c(N)ncnc43)[C@H](N(C)C)[C@@H]2O)C(OC(C)=O)C(OC(C)=O)C1OC(C)=O (stereo partly drawn) [Example 35K] |
| 1620 | CC(=O)OC[C@H](OC(C)=O)C1OC(OP(=O)(O)OP(=O)(S)OC[C@H]2O[C@@H](n3cnc4c(N)ncnc43)[C@H](N3CCC3)[C@@H]2O)C(OC(C)=O)C(OC(C)=O)C1OC(C)=O (stereo partly drawn) [Example 36C] |
| > 3000 | CC(=O)OC[C@H](OC(C)=O)C1OC(OP(=O)(O)OP(=O)(S)OC[C@H]2O[C@@H](n3cnc4c(N)ncnc43)[C@H](N3CCCC3)[C@@H]2O)C(OC(C)=O)C(OC(C)=O)C1OC(C)=O (stereo partly drawn) [Example 37C] |
| > 3000 | Nc1ncnc2c1ncn2[C@@H]1O[C@H](COP(=O)(S)OP(=O)(O)OC2OC([C@@H](O)CO)C(O)C(O)C2O)[C@@H](O)[C@H]1N1CCCC1 (stereo partly drawn) [Example 37D] |
| 431 | CC(=O)OC[C@H](OC(C)=O)C1OC(OP(=O)(O)OP(=O)(S)OC[C@H]2O[C@@H](n3ccc(=O)[nH]c3=O)[C@H](N(C)C)[C@@H]2O)C(OC(C)=O)C(OC(C)=O)C1OC(C)=O (stereo partly drawn) [Example 40C] |
| 713 | CN(C)[C@@H]1[C@H](O)[C@@H](COP(=O)(S)OP(=O)(O)OC2OC([C@@H](O)CO)C(O)C(O)C2O)O[C@H]1n1ccc(=O)[nH]c1=O (stereo partly drawn) [Example 40D] |
| 9.58 | C=C[C@@]1(OC)[C@H](O)[C@@H](COP(=O)(S)OP(=O)(O)OC2OC([C@H](COC(C)=O)OC(C)=O)C(OC(C)=O)C(OC(C)=O)C2OC(C)=O)O[C@H]1n1ccc(=O)[nH]c1=O (stereo partly drawn) [Example 45C] |
| 34.8 | C#C[C@@]1(OC)[C@H](O)[C@@H](COP(=O)(S)OP(=O)(O)OC2OC([C@H](COC(C)=O)OC(C)=O)C(OC(C)=O)C(OC(C)=O)C2OC(C)=O)O[C@H]1n1ccc(=O)[nH]c1=O (stereo partly drawn) [Example 95C] |
| 1060 | C=C=C[C@@]1(O)[C@H](O)[C@@H](COP(=O)(S)OP(=O)(O)OC2OC([C@H](COC(C)=O)OC(C)=O)C(OC(C)=O)C(OC(C)=O)C2OC(C)=O)O[C@H]1n1cnc2c(N)ncnc21 (stereo partly drawn) [Example 97C] |
| 2310 | C=C=C[C@@]1(O)[C@H](O)[C@@H](COP(=O)(S)OP(=O)(O)OC2OC([C@H](COC(C)=O)OC(C)=O)C(OC(C)=O)C(OC(C)=O)C2OC(C)=O)O[C@H]1n1ccc(=O)[nH]c1=O (stereo partly drawn) [Example 98C] |
| > 3000 | C=C[C@@]1(N=[N+]=[N-])[C@H](O)[C@@H](COP(=O)(S)OP(=O)(O)OC2OC([C@H](COC(C)=O)OC(C)=O)C(OC(C)=O)C(OC(C)=O)C2OC(C)=O)O[C@H]1n1ccc(=O)[nH]c1=O (stereo partly drawn) [Example 108C] |
| > 3000 | C#C[C@@]1(N=[N+]=[N-])[C@H](O)[C@@H](COP(=O)(S)OP(=O)(O)OC2OC([C@H](COC(C)=O)OC(C)=O)C(OC(C)=O)C(OC(C)=O)C2OC(C)=O)O[C@H]1n1ccc(=O)[nH]c1=O (stereo partly drawn) [Example 110C] |
| 360 | CC(=O)OC[C@H](OC(C)=O)C1OC(OP(=O)(O)OP(=O)(S)OC[C@H]2O[C@@H](n3ccc(=O)[nH]c3=O)[C@](C)(N)[C@@H]2O)C(OC(C)=O)C(OC(C)=O)C1OC(C)=O (stereo partly drawn) [Example 112C] |
| 2.89 | C=C[C@@]1(O)[C@H](O)[C@@H](COP(=O)(S)OP(=O)(O)OC2OC([C@H](COC(C)=O)OC(C)=O)C(OC(C)=O)C(OC(C)=O)C2OC(C)=O)O[C@H]1c1coc2c(N)ncnc12 (stereo partly drawn) [Example 125C] |
| 231 | C=C[C@@]1(O)[C@H](O)[C@@H](COP(=O)(S)OP(=O)(O)OC2OC([C@H](COC(C)=O)OC(C)=O)C(OC(C)=O)C(OC(C)=O)C2OC(C)=O)O[C@H]1c1csc(C(N)=O)c1N (stereo partly drawn) [Example 126C] |
| 3.62 | C=C[C@@]1(O)[C@H](O)[C@@H](COP(=O)(S)OP(=O)(O)OC2OC([C@H](COC(C)=O)OC(C)=O)C(OC(C)=O)C(OC(C)=O)C2OC(C)=O)O[C@H]1c1cnn2c(N)ncnc12 (stereo partly drawn) [Example 128C] |
